Results as given in ChEMBL document CHEMBL1150051, “Antiviral (RNA) activity of selected Amaryllidaceae isoquinoline constituents and synthesis of related substances” (J Nat Prod, 1992).
Converted amounts (≈) assume the structure as drawn. The source made the active and inactive calls. The calls are words filed in the database; no cut-off is given here.

Experiments:
[1] = tested on: Japanese encephalitis virus; assay: Antiviral activity against Japanese encephalitis virus Beijing infected in low viral dose challenge C57BL/6 mouse model assessed as average day of death at 40 mg/kg/day, sc once daily for 7 days administered 1 day before infection measured after 28 days post infection; assay type: functional; settings: route subcutaneous
[2] = Therapeutic index, ratio of TC50 for african green monkey Vero cells to IC50 for Yellow fever virus Ashibi; assay type: cell-based; settings: read-out: TI
[3] = tested on: Japanese encephalitis virus; assay: Antiviral activity against Japanese encephalitis virus Beijing infected in low viral dose challenge C57BL/6 mouse model assessed as survival rate at 40 mg/kg/day, sc once daily for 7 days administered 1 day before infection measured after 28 days post infection relative to control; assay type: functional; settings: route subcutaneous
[4] = Therapeutic index, ratio of TC50 for african green monkey Vero cells to IC50 for Japanese encephalitis virus Nakayama; assay type: cell-based; settings: read-out: TI
[5] = tested on: Human immunodeficiency virus 1; assay: Antiviral activity against HIV1 by cells based assay; assay type: functional, organism-based
dengue virus type 4 = assay: Antiviral activity against Dengue virus type 4 infected in african green monkey Vero cells after 6 days by plaque reduction assay; assay type: functional, organism-based; settings: Dengue virus, Vero, 144 h; read-out: IC50
[6] = tested on: Venezuelan equine encephalitis virus; assay: Antiviral activity against Venezuelan equine encephalitis virus Trinidad donkey infected in african green monkey Vero cells assessed as inhibition of virus-induced cytopathic effect by MTT assay; assay type: functional, organism-based
Punta Toro virus = assay: Antiviral activity against Punta Toro virus Adames infected in african green monkey Vero cells assessed as inhibition of virus-induced cytopathic effect by MTT assay; assay type: functional, organism-based; settings: Punta Toro virus, Adames, Vero; read-out: IC50
Vaccinia virus = assay: Antiviral activity against Vaccinia virus Lederle vaccine infected in african green monkey Vero cells assessed as inhibition of virus-induced cytopathic effect by MTT assay; assay type: functional, organism-based; settings: Orthopoxvirus vaccinia
[7] = tested on: Sandfly fever Sicilian virus; assay: Antiviral activity against Sandfly fever sicilian virus infected in african green monkey Vero cells assessed as inhibition of virus-induced cytopathic effect by MTT assay; assay type: functional, organism-based; settings: sandfly fever Sicilian virus, Vero; read-out: IC50
[8] = Therapeutic index, ratio of TC50 for african green monkey Vero cells to IC50 for Dengue type 4 virus; assay type: cell-based; settings: read-out: TI
[9] = tested on: Japanese encephalitis virus; assay: Antiviral activity against Japanese encephalitis virus Nakayama infected in african green monkey Vero cells assessed as inhibition of virus-induced cytopathic effect by MTT assay; assay type: functional, organism-based; settings: Japanese encephalitis virus, Nakayama, Vero; read-out: IC50
[10] = Therapeutic index, ratio of TC50 for african green monkey Vero cells to IC50 for Punta toro virus Adames; assay type: cell-based; settings: read-out: TI
Mus musculus [11] = assay: Toxicity in C57BL/6 mouse assessed as mortality at 20 mg/kg/day, sc once daily for 7 days; assay type: organism-based; set-up: route subcutaneous; settings: in vivo, 168 h
[12] = tested on: Japanese encephalitis virus; assay: Antiviral activity against Japanese encephalitis virus Beijing infected in low viral dose challenge C57BL/6 mouse model assessed as average day of death at 10 mg/kg/day, sc once daily for 7 days administered 1 day before infection measured after 28 days post infection; assay type: functional; settings: route subcutaneous
Mus musculus [13] = assay: Toxicity in C57BL/6 mouse assessed as mortality at 40 mg/kg/day, sc once daily for 7 days; assay type: organism-based; set-up: route subcutaneous; settings: in vivo, 168 h
[14] = tested on: Japanese encephalitis virus; assay: Antiviral activity against Japanese encephalitis virus Beijing infected in low viral dose challenge C57BL/6 mouse model assessed as survival rate at 10 mg/kg/day, sc once daily for 7 days administered 1 day before infection measured after 28 days post infection relative to control; assay type: functional, organism-based
[15] = Therapeutic index, ratio of TC50 for african green monkey Vero cells to IC50 for Rift valley fever virus; assay type: cell-based; settings: read-out: TI
[16] = tested on: Japanese encephalitis virus; assay: Antiviral activity against Japanese encephalitis virus Beijing infected in low viral dose challenge C57BL/6 mouse model assessed as average day of death at 20 mg/kg/day, sc once daily for 7 days administered 1 day before infection measured after 28 days post infection; assay type: functional; settings: route subcutaneous
Mus musculus [17] = assay: Toxicity in C57BL/6 mouse assessed as mortality at 10 mg/kg/day, sc once daily for 7 days; assay type: organism-based; set-up: route subcutaneous; settings: in vivo, 168 h
[18] = tested on: Japanese encephalitis virus; assay: Antiviral activity against Japanese encephalitis virus Beijing infected in low viral dose challenge C57BL/6 mouse model assessed as survival rate at 20 mg/kg/day, sc once daily for 7 days administered 1 day before infection measured after 28 days post infection relative to control; assay type: functional; settings: route subcutaneous
Yellow fever virus = assay: Antiviral activity against Yellow fever virus Ashibi infected in african green monkey Vero cells assessed as inhibition of virus-induced cytopathic effect by MTT assay; assay type: functional, organism-based; settings: Yellow fever virus, Ashibi, Vero; read-out: IC50
[19] = Therapeutic index, ratio of TC50 for african green monkey Vero cells to IC50 for Sandfly fever sicilian virus; assay type: cell-based; settings: read-out: TI
Mus musculus [20] = assay: Toxicity in C57BL/6 mouse assessed as body weight loss at 40 mg/kg/day, sc once daily for 7 days; assay type: organism-based; set-up: route subcutaneous; settings: in vivo, 168 h
Mus musculus [21] = assay: Toxicity in C57BL/6 mouse assessed as average day of death at 2 mg/kg/day, sc once daily for 7 days; assay type: organism-based; set-up: route subcutaneous; settings: in vivo, 168 h
Rift Valley fever virus = assay: Antiviral activity against Rift Valley fever virus infected in african green monkey Vero cells after 6 days by plaque reduction assay; assay type: functional, organism-based; settings: Rift Valley fever virus, Vero, 144 h; read-out: IC50

SMILES: O=C1N[C@H]2[C@H](O)[C@H](O)[C@@H](O)[C@H](O)[C@@H]2c2cc3c(cc21)OCO3
- Activity [1]: 9.5 days
- selectivity ratio [2]: 6.6
- Activity [3]: 80%
- selectivity ratio [4]: 5.9
- Activity [5]: inactive
- IC50 (dengue virus type 4): 0.67 µg/mL (≈ 2.17 µM)
- Activity [6]: inactive
- IC50 (Punta Toro virus): 0.66 µg/mL (≈ 2.13 µM)
- Activity (Vaccinia virus): inactive
- IC50 [7]: 1.7 µg/mL (≈ 5.5 µM)
- selectivity ratio [8]: 3.7
- IC50 [9]: 0.48 µg/mL (≈ 1.55 µM)
- selectivity ratio [10]: 4.3
- Activity (Mus musculus [11]): Non-toxic
- Activity [12]: 13.6 days
- Activity (Mus musculus [13]): Non-toxic
- Activity [14]: inactive
- selectivity ratio [15]: 4.3
- Activity [16]: 15 days
- Activity (Mus musculus [17]): Non-toxic
- Activity [18]: 60%
- IC50 (Yellow fever virus): 0.4 µg/mL (≈ 1.29 µM)
- selectivity ratio [19]: 2.7
- Activity (Mus musculus [20]): Toxic
- Activity (Mus musculus [21]): 28 days
- IC50 (Rift Valley fever virus): 5.1 µg/mL (≈ 16.5 µM)
